Km data for one compound are collected here from publication PMC8194517, “B^0AT1 Amino Acid Transporter Complexed With SARS-CoV-2 Receptor ACE2 Forms a Heterodimer Functional Unit: In Situ Conformation Using Radiation Inactivation Analysis” (Function, 2021).

The assay relates to T1, B^0AT1 ([ACE2:B^0AT1] heterodimer functional unit).
T1 construct: gene SLC6A19; native, ileal apical brush border membrane vesicles, lyophilized and reconstituted; full-length; with Angiotensin-converting enzyme 2
Kind of assay: radiotracer uptake into brush border membrane vesicles, […] s initial rate. Type of assay: biochemical, Oryctolagus cuniculus. The settings on record: labelled compound; Na+-dependent zero-trans influx, 100 mM NaSCN, pH 7.5, 22°C; apparent Km, major component after subtracting diffusion and a minor 'Other' component.

Take `C[C@H](N)C(=O)O` [L-alanine]: the Km (commonly the substrate concentration at which the rate is half of its maximum) came out at 6.9 ± 0.8 mM.
